Test results reported in patent publication US9402827B2, “Treatment of gout” (ARDEA BIOSCIENCES, INC., priority 2010, dated 2016).
Where “and” joins values, the source holds several entries; their conditions need not be identical. Equal entries are not always repeated.

Key:
[1] = tested on: monosodium urate (MSU) crystal injection-induced inflammation; assay: In vivo MSU-induced inflammation, rat air pouch study (Example 3B); set-up: species or system Sprague-Dawley rats; conditions: for Extravasation (optical absorbance at 620 nm), Av / Extravasation (optical absorbance at 620 nm), individual rats 1-10 / Exudate volume, Av / Exudate volume, individual rats 1-10 / Total white blood cell count, Av / Total white blood cell count, individual rats 1-10: 4 h after MSU
Procedure: (Air Pouch studies) were unpacked, placed in cages, a health inspection performed and a number assigned. […] Under anesthesia, 30 mL sterile air was injected subcutaneously on day 0 and day 3. Vehicle (water) or Lesinurad were administered orally. On the day of the experiment, rats were dosed with Vehicle, Lesinurad p.o., and/or colchicine s.c. (Sigma, Cat.#C9754, Lot.#188K1131). […] The pouch was gently massaged and the exudate was immediately removed from the air pouch. The exudate volume was measured and recorded for each animal. […] The supernatants were stored at −20° C. for cytokine analysis. […] Plasma extravasation was measured by optical absorbance at 620 nm for each exudate sample.

[2] = tested on: MSU-induced knee joint swelling; assay: In vivo MSU-induced inflammation, rat knee joint study (Example 3C); set-up: species or system Sprague-Dawley rats; conditions: for Average increase in knee diameter: 4 h after MSU
Procedure: [table] Groups 1 and 2 were orally dosed with Vehicle (sterile water) once daily for seven days from Day 1. […] Groups 6 and 7 were orally dosed with Lesinurad once daily for seven days from Day 1; Group 7 also received colchicine administered subcutaneously on Day 7. […] The injection was performed from the anterior aspect of the knee joint, which was slightly extended and flexed. […] Four hours after MSU administration, the rats were anesthetized, the diameter of right knee joints were measured with calipers; surface temperature for right knees were measured. Synovial lavage fluid from the knee was collected by injecting phosphate buffered saline with 1% BSA (0.2 mL) into the joint cavity, the fluid then collected, centrifuged and the supernatants stored at −80° C.

[3] = in certain instances; cited from earlier work
gout flares = conditions: allopurinol dosed with colchicine (0.5 mg QD); separate study; cited from earlier work
[4] = in certain instances; cited from earlier work; remark: listed apart in the source
TNF-α = assay: Effect of rilonacept on TNF-α production (Example 1, FIG. 2A); format: cell-based; conditions: 6 hour time point
Excerpt: (§1) FIG. 2 illustrates the effect of rilonacept […] on TNF-α (FIG. 2A) and IL-1β production (FIG. 2B).
(§2) Activation of the inflammasome results in the release of preformed IL-1, which goes on to activate other targets as well as increase the production of IL-1 itself.

IL-1β = assay: Effect of rilonacept on IL-1β production (Example 1, FIG. 2B); format: cell-based
Excerpt: as §1, §2

COc1cc2c(c(OC)c1OC)-c1ccc(OC)c(=O)cc1[C@@H](NC(C)=O)CC2 [Colchicine, reference compound]
Extravasation (optical absorbance at 620 nm), Av ([1]; Colchicine 0.01 mg/kg s.c.): 1.78 | Extravasation (optical absorbance at 620 nm), individual rats 1-10 ([1]; Colchicine 0.01 mg/kg s.c.): 1.34 and 1.53 and 1.46 and 1.67 and 1.63 and 1.74 and 2.62 and 2.39 and 1.99 and 1.42 | Exudate volume, Av ([1]; Colchicine 0.01 mg/kg s.c.): 9.8 mL | Exudate volume, individual rats 1-10 ([1]; Colchicine 0.01 mg/kg s.c.): 12 mL (2×) and 8 mL (3×) and 10 mL and 9 mL (2×) and 11 mL (2×) | Total white blood cell count, Av ([1]; Colchicine 0.01 mg/kg s.c.): 1.65 ×10^8 | Total white blood cell count, individual rats 1-10 ([1]; Colchicine 0.01 mg/kg s.c.): 0.87 ×10^8 and 2.72 ×10^8 and 3.40 ×10^8 and 0.63 ×10^8 and 2.27 ×10^8 and 0.90 ×10^8 and 2.22 ×10^8 and 2.42 ×10^8 and 0.69 ×10^8 and 0.34 ×10^8 | Extravasation (optical absorbance at 620 nm), Av ([1]; Colchicine 0.1 mg/kg s.c.): 1.29 | Extravasation (optical absorbance at 620 nm), individual rats 1-10 ([1]; Colchicine 0.1 mg/kg s.c.): 1.25 and 1.41 and 1.31 and 1.74 and 0.68 and 1.75 and 1.72 and 0.98 and 0.83 and 1.22 | Exudate volume, Av ([1]; Colchicine 0.1 mg/kg s.c.): 9.86 mL | Exudate volume, individual rats 1-10 ([1]; Colchicine 0.1 mg/kg s.c.): 9 mL (2×) and 8 mL (2×) and 10 mL and 7.8 mL and 9.8 mL and 11 mL (2×) and 15 mL | Total white blood cell count, Av ([1]; Colchicine 0.1 mg/kg s.c.): 0.78 ×10^8 | Total white blood cell count, individual rats 1-10 ([1]; Colchicine 0.1 mg/kg s.c.): 0.41 ×10^8 and 0.14 ×10^8 and 2.60 ×10^8 and 1.21 ×10^8 and 0.32 ×10^8 and 1.27 ×10^8 and 1.51 ×10^8 and 0.03 ×10^8 and 0.06 ×10^8 and 0.27 ×10^8 | Extravasation (optical absorbance at 620 nm), Av ([1]; Colchicine 1 mg/kg s.c.): 0.89 | Extravasation (optical absorbance at 620 nm), individual rats 1-10 ([1]; Colchicine 1 mg/kg s.c.): 0.75 and 0.36 and 1.17 and 1.19 and 1.24 (2×) and 1.12 and 0.52 and 0.73 and 0.59 | Exudate volume, Av ([1]; Colchicine 1 mg/kg s.c.): 6.13 mL | Exudate volume, individual rats 1-10 ([1]; Colchicine 1 mg/kg s.c.): 8 mL (2×) and 4.4 mL and 7 mL and 5.9 mL and 8.6 mL and 5.6 mL and 4.6 mL and 4 mL and 5.2 mL | Total white blood cell count, Av ([1]; Colchicine 1 mg/kg s.c.): 0.56 ×10^8 | Total white blood cell count, individual rats 1-10 ([1]; Colchicine 1 mg/kg s.c.): 0.36 ×10^8 and 0.01 ×10^8 and 3.43 ×10^8 and 0.32 ×10^8 and 0.52 ×10^8 and 0.26 ×10^8 (2×) and 0.35 ×10^8 and 0.03 ×10^8 and 0.09 ×10^8 | Number of white blood cells, in words ([1]; Colchicine 0.01, 0.1, 1 mg/kg): dose-dependently lowered the number of white blood cells | Extravasation, in words ([1]; Colchicine 0.01, 0.1 and 1 mg/kg): dose-dependent decrease in extravasation | Exudate volume, in words ([1]; colchicine 1 mg/kg): significantly reduced exudate volume | Exudate volume, in words ([1]; colchicine 0.01 and 0.1 mg/kg): did not significantly reduce exudate volume | Average increase in knee diameter ([2]; Colchicine 0.1 mg/kg s.c., p < 0.01 vs Vehicle): 0.71 mm | Average increase in knee diameter ([2]; Colchicine 0.3 mg/kg s.c., p < 0.001 vs Vehicle): 0.53 mm | Average increase in knee diameter ([2]; Colchicine 1 mg/kg s.c., p < 0.001 vs Vehicle): 0.41 mm | MSU-induced increase in knee diameter, in words ([2]; Colchicine 0.1, 0.3 and 1 mg/kg): dose-dependently decreased the MSU-induced increase in knee diameter

CCCN(CCC)S(=O)(=O)c1ccc(C(=O)O)cc1 [probenecid]
individuals who fail to achieve reduction of serum uric acid levels <6 mg/dL [3]: 25-50%

Oc1ncnc2[nH]ncc12 [allopurinol]
patients experiencing flares (gout flares): 28% | incidence of side effects, of all individuals treated [4]: 20%

rilonacept
TNF-α production (TNF-α): only inhibits the production of TNF-α | IL-1 production (IL-1β): does not reduce IL-1 production
